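48-hour exposure; five concentrations; linearly interpolated endpoints. TGI is the concentration that stops growth completely.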
Key:
Assay in all cases: NCI tumour cell line growth inhibition, 48 h
HT29 colon = test system: HT29 colon
M14 melanoma = test system: M14 melanoma
MCF7 breast = test system: MCF7 breast
NCI/ADR-RES ovarian = test system: NCI/ADR-RES ovarian
OVCAR-3 ovarian = test system: OVCAR-3 ovarian
SF-295 CNS = test system: SF-295 CNS
SK-MEL-5 melanoma = test system: SK-MEL-5 melanoma
SW-620 colon = test system: SW-620 colon
TK-10 renal = test system: TK-10 renal
UO-31 renal = test system: UO-31 renal
NCI-H522 lung = test system: NCI-H522 lung
BT-549 breast = test system: BT-549 breast

| Compound | TGI (HT29 colon) | TGI (M14 melanoma) | TGI (MCF7 breast) | TGI (NCI/ADR-RES ovarian) | TGI (OVCAR-3 ovarian) | TGI (SF-295 CNS) | TGI (SK-MEL-5 melanoma) | TGI (SW-620 colon) | TGI (TK-10 renal) | TGI (UO-31 renal) | TGI (NCI-H522 lung) | TGI (BT-549 breast) |
| --- | --- | --- | --- | --- | --- | --- | --- | --- | --- | --- | --- | --- |
| CC(=O)OCC(=O)OC[C@H](OCc1ccccc1)[C@@H]1[C@H](OC(C)=O)C(=O)N1Cc1ccccc1 | > 100 µM | > 100 µM | > 100 µM | > 100 µM | > 100 µM | > 100 µM | > 100 µM | > 100 µM | > 100 µM | > 100 µM |  |  |
| O=C1CC(CC(=O)c2ccc(Br)cc2)C(=O)/C1=C(/O)c1ccc(Br)cc1 (centres undefined) | > 100 µM | > 100 µM | > 100 µM | > 100 µM | > 100 µM | > 100 µM | > 100 µM | > 100 µM | > 100 µM | > 100 µM | > 100 µM |  |
| COc1cc(C2(c3ncc[nH]3)SSSCC2O)ccc1O (centres undefined) | > 100 µM |  | > 100 µM | > 62.8 µM | > 71.7 µM | > 100 µM | > 100 µM | > 100 µM |  | > 100 µM | 90.6 µM |  |
| CC1=CC[C@@]2(C)CC[C@](O)(C(C)C)C2C(OC(=O)c2ccccc2)C1 (some centres undefined) | 32.7 µM | 37.8 µM | 34.4 µM | 41.5 µM | 31.8 µM | 34.8 µM | 34.9 µM | 54.4 µM | 35.3 µM | 32.6 µM | 33.2 µM |  |
| CCCCCCCCCOCC(COP(=O)([O-])OCC[N+](C)(C)C)OC (centres undefined) | > 100 µM |  | > 100 µM | > 100 µM | > 100 µM | > 100 µM | > 100 µM | > 100 µM |  | > 100 µM | > 100 µM |  |
| COc1c(C(=O)NCCN(CCNC(=O)c2cccc(-c3cccc(C(=O)N(C)C)c3OC)c2OC)CCNC(=O)c2cccc(-c3cccc(C(=O)N(C)C)c3OC)c2OC)cccc1-c1cccc(C(=O)N(C)C)c1OC | > 100 µM | > 100 µM | 78 µM | > 100 µM | 32.5 µM | > 100 µM | 68.7 µM | > 100 µM |  | > 100 µM | 43.5 µM |  |
| COc1ccc2c(c1)CCCN1CCc3ccccc3C21 (centres undefined) | > 100 µM | 51.5 µM | > 100 µM | 49.5 µM | > 100 µM | 79.1 µM | > 100 µM | > 100 µM | > 100 µM |  | > 100 µM |  |
| CCOC(=O)CC(NC(=O)c1[nH]cnc1/N=N/N(C)C)C(=O)OCC (centres undefined) | > 100 µM | > 100 µM |  |  | > 100 µM | > 100 µM | > 100 µM | > 100 µM | > 100 µM | > 100 µM | > 100 µM |  |
| CC(=O)NCC1OC2COC(c3ccccc3)OC2C(NC(=O)c2ccccc2)C1OC(=O)c1ccccc1 (centres undefined) | > 100 µM | > 100 µM | > 100 µM | > 100 µM | > 100 µM | > 100 µM | > 100 µM | > 100 µM | > 100 µM | > 100 µM |  | > 100 µM |
| CCOP(=O)(OCC)C(NC(=O)C(C(F)(F)F)C(F)(F)F)c1ccccc1 (centres undefined) | > 100 µM | > 100 µM | > 100 µM | > 100 µM | > 100 µM | > 100 µM | > 100 µM | > 100 µM | > 100 µM | > 100 µM |  |  |
| CC(=O)c1ccc2c(c1)CC1(C2)Cc2cc3c(c(C(=O)O)c2C1)CCC3 (centres undefined) | > 100 µM |  | > 100 µM | > 100 µM | > 100 µM | > 100 µM | > 100 µM | > 100 µM | > 100 µM | > 100 µM | > 100 µM | > 100 µM |
| NC1CCC(N(CC(=O)O)CC(=O)O)C(N(CC(=O)O)CC(=O)O)C1 (centres undefined) | > 100 µM |  | > 100 µM | > 100 µM | > 100 µM | > 100 µM | > 100 µM | > 100 µM | > 100 µM | > 100 µM | > 100 µM | > 100 µM |
| CSc1nc2c(c(=O)n1C)N=C(c1ccc([N+](=O)[O-])cc1)CC(c1ccccc1)N2 (centres undefined) | > 100 µM | > 100 µM | > 100 µM | > 100 µM | > 100 µM | > 100 µM | > 100 µM | > 100 µM |  | > 100 µM | > 100 µM | > 100 µM |
| CCOC(=O)c1nc2cc(C(F)(F)F)ccc2nc1Nc1ccc(C(=O)OC)s1 | > 100 µM | > 100 µM |  | > 100 µM | 48.7 µM | > 100 µM | > 100 µM | > 100 µM | > 100 µM | > 100 µM | 90.3 µM | 74.6 µM |
| CCC1(c2ccc(N3C(=O)c4cc(OC)c(OC)cc4C3=O)cc2)CCC(=O)NC1=O (centres undefined) | > 10 µM | > 10 µM | > 10 µM | > 10 µM | > 10 µM | > 10 µM | > 10 µM | > 10 µM | > 10 µM | > 10 µM |  | > 10 µM |
| COc1cccc(C2c3cc4c(cc3OC(NNS(=O)(=O)c3ccc(C)cc3)C2C)OCO4)c1OC (centres undefined) | 13.9 µM | > 100 µM | 79.5 µM |  | 4.55 µM | > 100 µM | 19 µM | > 100 µM | 49.8 µM | 52.8 µM | 8.61 µM | 36 µM |
| CC(=O)O[C@H]1C(=O)[C@@]2(C)[C@H]([C@H](OC(=O)c3ccccc3)[C@]3(O)C[C@H](OC(=O)[C@H](O)[C@@H](NC(=O)c4ccco4)c4ccccc4)C(C)=C1C3(C)C)[C@]1(OC(C)=O)CO[C@@H]1C[C@@H]2O | > 12.5 µM | > 12.5 µM | > 12.5 µM | > 7.75 µM | 0.00548 µM | > 12.5 µM | > 12.5 µM | > 12.5 µM | > 12.5 µM | > 12.5 µM | > 12.5 µM |  |
| O=Cc1cc(C(=O)OCc2ccccc2)n(S(=O)(=O)c2ccccc2)c1 | 48.4 µM | 36.2 µM | 67.2 µM | 98.6 µM | 35.6 µM | 29 µM | 20.2 µM |  | 69.6 µM | 44.1 µM | > 100 µM | 33.9 µM |
| [B-][P+](CC[P+]1([B-])[C@@H](C)[C@@H](O)[C@H](O)[C@@H]1C)(c1ccccc1)c1ccccc1OC (some centres undefined) | 40.6 µM | 34 µM | 35.6 µM | 35.9 µM | 31 µM | 29.4 µM | 29.3 µM | 31.9 µM | 32.5 µM | 21.7 µM | 26.2 µM |  |

Reference: PubChem BioAssay (NCI)
